Assay results: patent US20230250066A1, “HERBICIDAL CINNOLINE DERIVATIVES” (SYNGENTA CROP PROTECTION AG, priority 2020, published 2023)

How the values were obtained:
Assay type in all cases: in vivo
[1] = system: Amaranthus retoflexus (AMARE); assay: Pre-emergence herbicidal test; details: 1000 g/ha, evaluated after 13 days
Setaria faberi (SETFA) [2] = assay: Pre-emergence herbicidal test; details: 1000 g/ha, evaluated after 13 days
[3] = system: Echinochloa crus-galli (ECHCG); assay: Pre-emergence herbicidal test; details: 1000 g/ha, evaluated after 13 days
[4] = system: Ipomoea hederacea (IPOHE); assay: Pre-emergence herbicidal test; details: 1000 g/ha, evaluated after 13 days
[5] = system: Abutilon theophrasti (ABUTH); assay: Pre-emergence herbicidal test; details: 1000 g/ha, evaluated after 13 days
Zea mays (ZEAMX) [6] = assay: Pre-emergence herbicidal test; details: 1000 g/ha, evaluated after 13 days
[7] = system: Abutilon theophrasti (ABUTH); assay: Post-emergence herbicidal test; details: 1000 g/ha unless otherwise stated, evaluated after 13 days
Method in brief: (§1)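 Spray-applied at 1000 g/ha unless stated, in the glasshouse. Damage rated 13 days later on a 0–5 scale.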

[8] = system: Amaranthus retoflexus (AMARE); assay: Post-emergence herbicidal test; details: 1000 g/ha unless otherwise stated, evaluated after 13 days
Method in brief: as §1

[9] = system: Echinochloa crus-galli (ECHCG); assay: Post-emergence herbicidal test; details: 1000 g/ha unless otherwise stated, evaluated after 13 days
Method in brief: as §1

[10] = system: Ipomoea hederacea (IPOHE); assay: Post-emergence herbicidal test; details: 1000 g/ha unless otherwise stated, evaluated after 13 days
Method in brief: as §1

Setaria faberi (SETFA) [11] = assay: Post-emergence herbicidal test; details: 1000 g/ha unless otherwise stated, evaluated after 13 days
Method in brief: as §1

Zea mays (ZEAMX) [12] = assay: Post-emergence herbicidal test; details: 1000 g/ha unless otherwise stated, evaluated after 13 days
Method in brief: as §1

SMILES	percentage damage caused to the plant, five-point scale, AMARE [1]	percentage damage caused to the plant, five-point scale, SETFA (Setaria faberi (SETFA) [2])	percentage damage caused to the plant, five-point scale, ECHCG [3]	percentage damage caused to the plant, five-point scale, IPOHE [4]	percentage damage caused to the plant, five-point scale, ABUTH [5]	percentage damage caused to the plant, five-point scale, ZEAMX (Zea mays (ZEAMX) [6])	percentage damage caused to the plant, ABUTH (five-point scale) [7]	percentage damage caused to the plant, AMARE (five-point scale) [8]	percentage damage caused to the plant, ECHCG (five-point scale) [9]	percentage damage caused to the plant, IPOHE (five-point scale) [10]	percentage damage caused to the plant, SETFA (five-point scale) (Setaria faberi (SETFA) [11])	percentage damage caused to the plant, ZEAMX (five-point scale) (Zea mays (ZEAMX) [12])
CCOC(=O)c1nn(-c2ccc(Cl)cc2Cl)c2cccc(S(C)(=O)=O)c2c1=O [Compound P44, ethyl 1-(2,4-dichlorophenyl)-5-methylsulfonyl-4-oxo-cinnoline-3-carboxylate]	1 (1=10-20%)	4 (4=61-80%)	2 (2=21-40%)	0 (0=0%)	0 (0=0%)	0 (0=0%)	1 (1=10-20%)	1 (1=10-20%)	4 (4=61-80%)	1 (1=10-20%)	4 (4=61-80%)	1 (1=10-20%)
CCOC(=O)c1nn(-c2ccc(OC(F)(F)F)cc2)c2ccc(CC(C)C)c(S(C)(=O)=O)c2c1=O [Compound P45, ethyl 6-isobutyl-5-methylsulfonyl-4-oxo-1-[4-(trifluoromethoxy)phenyl]cinnoline-3-carboxylate]	0 (0=0%)	0 (0=0%)	0 (0=0%)	0 (0=0%)	0 (0=0%)	0 (0=0%)	0 (0=0%)	0 (0=0%)	1 (1=10-20%)	0 (0=0%)	1 (1=10-20%)	1 (1=10-20%)
CCOC(=O)c1nn(-c2ccc(OC(F)(F)F)cc2)c2cc(CC(C)C)cc(S(C)(=O)=O)c2c1=O [Compound P46, ethyl 7-isobutyl-5-methysulfonyl-4-oxo-1-[4-(trifluoromethoxy)phenyl]cinnoline-3-carboxylate]	0 (0=0%)	0 (0=0%)	0 (0=0%)	0 (0=0%)	1 (1=10-20%)	2 (2=21-40%)	1 (1=10-20%)	0 (0=0%)	1 (1=10-20%)	1 (1=10-20%)	1 (1=10-20%)	1 (1=10-20%)
CCOC(=O)c1nn(-c2ccc(OC(F)(F)F)cc2)c2ccc(C#N)c(S(C)(=O)=O)c2c1=O [Compound P47, ethyl 6-cyano-5-methylsulfonyl-4-oxo-1-[4-(trifluoromethoxy)phenyl]cinnoline-3-carboxylate]	0 (0=0%)	0 (0=0%)	0 (0=0%)	0 (0=0%)	0 (0=0%)	0 (0=0%)	0 (0=0%)	0 (0=0%)	1 (1=10-20%)	0 (0=0%)	1 (1=10-20%)	0 (0=0%)
CCOC(=O)c1nn(-c2ccc(OC(F)(F)F)cc2)c2cc(C#N)cc(S(C)(=O)=O)c2c1=O [Compound P48, ethyl 7-cyano-5-methylsulfonyl-4-oxo-1-[4-(trifluoromethoxy)phenyl]cinnoline-3-carboxylate]	0 (0=0%)	0 (0=0%)	0 (0=0%)	0 (0=0%)	0 (0=0%)	0 (0=0%)	0 (0=0%)	0 (0=0%)	0 (0=0%)	0 (0=0%)	0 (0=0%)	0 (0=0%)
CCOC(=O)c1nn(-c2ccc(OC(F)(F)F)cc2)c2ccc(OC)c(S(C)(=O)=O)c2c1=O [Compound P49, ethyl 6-methoxy-5-methylsulfonyl-4-oxo-1-[4-(trifluoromethoxy)phenyl]cinnoline-3-carboxylate]	0 (0=0%)	0 (0=0%)	0 (0=0%)	0 (0=0%)	0 (0=0%)	0 (0=0%)	0 (0=0%)	0 (0=0%)	1 (1=10-20%)	1 (1=10-20%)	1 (1=10-20%)	0 (0=0%)
CCOC(=O)c1nn(-c2ccc(OC(F)(F)F)cc2)c2ccc(F)c(S(C)(=O)=O)c2c1=O [Compound P51, ethyl 6-fluoro-5-methylsulfonyl-4-oxo-1-[4-(trifluoromethoxy)phenyl]cinnoline-3-carboxylate]	0 (0=0%)	0 (0=0%)	0 (0=0%)	0 (0=0%)	0 (0=0%)	0 (0=0%)	0 (0=0%)	0 (0=0%)	0 (0=0%)	0 (0=0%)	0 (0=0%)	0 (0=0%)
CCOC(=O)c1nn(-c2ccc(OC(F)(F)F)cc2)c2cc(F)cc(S(C)(=O)=O)c2c1=O [Compound P52, ethyl 7-fluoro-5-methylsulfonyl-4-oxo-1-[4-(trifluoromethoxy)phenyl]cinnoline-3-carboxylate]	1 (1=10-20%)	4 (4=61-80%)	3 (3=41-60%)	0 (0=0%)	1 (1=10-20%)	0 (0=0%)	1 (1=10-20%)	1 (1=10-20%)	2 (2=21-40%)	0 (0=0%)	2 (2=21-40%)	1 (1=10-20%)
CCOC(=O)c1nn(-c2ccc(OC(F)(F)F)cc2)c2cc(F)cc(SC)c2c1=O [Compound P54, ethyl 7-fluoro-5-methylsulfanyl-4-oxo-1-[4-(trifluoromethoxy)phenyl]cinnoline-3-carboxylate]	1 (1=10-20%)	2 (2=21-40%)	2 (2=21-40%)	0 (0=0%)	1 (1=10-20%)	0 (0=0%)	1 (1=10-20%)	2 (2=21-40%)	0 (0=0%)	1 (1=10-20%)	0 (0=0%)	1 (1=10-20%)
